Measured values taken from PubChem BioAssay (NCI).
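Values below derive from 48-hour exposures of cells grown in 96-well plates, with endpoints linearly interpolated between the two concentrations bracketing the appropriate inhibition level. The concentration for 50% growth inhibition is given as GI50. TGI: total growth inhibition.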

Key:
Assay in all cases: DTP human tumour cell line panel, 48 h
[1] = tested on: 786-0 renal
[2] = tested on: A498 renal
[3] = tested on: A549 NSCLC
[4] = tested on: ACHN renal
[5] = tested on: BT-549 breast
[6] = tested on: CAKI-1 renal
[7] = tested on: CCRF-CEM leukemia
[8] = tested on: COLO 205 colon
[9] = tested on: DU-145 prostate
[10] = tested on: EKVX NSCLC
[11] = tested on: HCC-2998 colon
[12] = tested on: HCT-116 colon
[13] = tested on: HCT-15 colon
[14] = tested on: HL-60(TB) leukemia
[15] = tested on: HOP-62 NSCLC
[16] = tested on: HS 578T breast
[17] = tested on: HT29 colon
[18] = tested on: IGROV1 ovarian
[19] = tested on: K-562 leukemia
[20] = tested on: KM12 colon
[21] = tested on: LOX IMVI melanoma
[22] = tested on: M14 melanoma
[23] = tested on: MALME-3M melanoma
[24] = tested on: MCF7 breast
[25] = tested on: MDA-MB-231 breast
[26] = tested on: MDA-MB-435
[27] = tested on: MOLT-4 leukemia
[28] = tested on: NCI-H226 lung
[29] = tested on: NCI-H23 lung
[30] = tested on: NCI-H460 lung
[31] = tested on: NCI-H522 lung
[32] = tested on: NCI/ADR-RES ovarian
[33] = tested on: OVCAR-3 ovarian
[34] = tested on: OVCAR-4 ovarian
[35] = tested on: OVCAR-5 ovarian
[36] = tested on: OVCAR-8 ovarian
[37] = tested on: PC-3 prostate
[38] = tested on: RXF 393 renal
[39] = tested on: SF-268 CNS
[40] = tested on: SF-295 CNS
[41] = tested on: SF-539 CNS
[42] = tested on: SK-MEL-2 melanoma
[43] = tested on: SK-MEL-28 melanoma
[44] = tested on: SK-MEL-5 melanoma
[45] = tested on: SK-OV-3 ovarian
[46] = tested on: SN12C renal
[47] = tested on: SNB-19 CNS
[48] = tested on: SNB-75 CNS
[49] = tested on: SR leukemia
[50] = tested on: SW-620 colon
[51] = tested on: T-47D breast
[52] = tested on: TK-10 renal
[53] = tested on: U251 CNS
[54] = tested on: UACC-257 melanoma
[55] = tested on: UACC-62 melanoma
[56] = tested on: UO-31 renal

`CCCC(=O)OCC1OC(n2cnc3c(=S)nc[nH]c32)C(OC(=O)CCC)C1OC(=O)CCC` (configuration not stated) gave a GI50 [1] of 3.46 µM, a TGI [1] of over 100 µM and a GI50 [2] of 33.2 µM. The TGI [2] was over 100 µM, the GI50 [3] was 38.1 µM and the TGI [3] was over 100 µM. The GI50 [4] was 6.15 µM, the TGI [4] was over 100 µM and the GI50 [5] was 14.3 µM. The TGI [5] was over 100 µM, the GI50 [6] was 2.51 µM and the TGI [6] was 23.5 µM. The GI50 [7] was 1.79 µM, the TGI [7] was 17.4 µM and the GI50 [8] was 4.57 µM. It also gave a TGI [8] of 18.9 µM, a GI50 [9] of 3.06 µM and a TGI [9] of over 100 µM. It also gave a GI50 [10] of 35 µM, a TGI [10] of over 100 µM and a GI50 [11] of 2.92 µM. It also gave a TGI [11] of over 100 µM, a GI50 [12] of 4 µM and a TGI [12] of over 100 µM. The GI50 [13] was 7.22 µM, the TGI [13] was over 100 µM and the GI50 [14] was 2.6 µM. For the same compound, the TGI [14] was 9.96 µM, the GI50 [15] was 2.84 µM and the TGI [15] was over 100 µM. For the same compound, the GI50 [16] was over 100 µM, the TGI [16] was over 100 µM and the GI50 [17] was 3.63 µM. For the same compound, the TGI [17] was over 100 µM, the GI50 [18] was 10.3 µM and the TGI [18] was over 100 µM. The GI50 [19] was 1.7 µM, the TGI [19] was over 100 µM and the GI50 [20] was 4.99 µM. It also gave a TGI [20] of over 100 µM, a GI50 [21] of 2.34 µM and a TGI [21] of over 100 µM. The GI50 [22] was 2.23 µM, the TGI [22] was over 100 µM and the GI50 [23] was 38.5 µM. For the same compound, the TGI [23] was over 100 µM, the GI50 [24] was 1.95 µM and the TGI [24] was over 100 µM. For the same compound, the GI50 [25] was 5.71 µM, the TGI [25] was over 100 µM and the GI50 [26] was 3.55 µM. It also gave a TGI [26] of over 100 µM, a GI50 [27] of 3.06 µM and a TGI [27] of 39.1 µM. For the same compound, the GI50 [28] was 5.77 µM, the TGI [28] was over 100 µM and the GI50 [29] was 5.09 µM. For the same compound, the TGI [29] was over 100 µM, the GI50 [30] was 8.13 µM and the TGI [30] was over 100 µM. It also gave a GI50 [31] of 4.62 µM, a TGI [31] of over 100 µM and a GI50 [32] of 8.15 µM. It also gave a TGI [32] of over 100 µM, a GI50 [33] of 0.92 µM and a TGI [33] of over 100 µM. For the same compound, the GI50 [34] was 0.802 µM, the TGI [34] was over 100 µM and the GI50 [35] was 4.76 µM. For the same compound, the TGI [35] was over 100 µM, the GI50 [36] was 4.2 µM and the TGI [36] was over 100 µM. For the same compound, the GI50 [37] was 3.72 µM, the TGI [37] was over 100 µM and the GI50 [38] was 26 µM. For the same compound, the TGI [38] was over 100 µM, the GI50 [39] was 5.95 µM and the TGI [39] was over 100 µM. It also gave a GI50 [40] of 3.53 µM, a TGI [40] of over 100 µM and a GI50 [41] of 3.53 µM. The TGI [41] was over 100 µM, the GI50 [42] was 28.1 µM and the TGI [42] was over 100 µM. It also gave a GI50 [43] of 77.5 µM, a TGI [43] of over 100 µM and a GI50 [44] of 5.24 µM. For the same compound, the TGI [44] was 62.9 µM, the GI50 [45] was 0.804 µM and the TGI [45] was 69.8 µM. The GI50 [46] was 4.58 µM, the TGI [46] was over 100 µM and the GI50 [47] was 46.4 µM. The TGI [47] was over 100 µM, the GI50 [48] was 4.04 µM and the TGI [48] was over 100 µM. The GI50 [49] was 2.02 µM, the TGI [49] was 40.2 µM and the GI50 [50] was 4.59 µM. The TGI [50] was over 100 µM, the GI50 [51] was 0.794 µM and the TGI [51] was over 100 µM. It also gave a GI50 [52] of 2.78 µM, a TGI [52] of over 100 µM and a GI50 [53] of 62 µM. It also gave a TGI [53] of over 100 µM, a GI50 [54] of 10.7 µM and a TGI [54] of over 100 µM. For the same compound, the GI50 [55] was 1.91 µM, the TGI [55] was over 100 µM and the GI50 [56] was 7.53 µM. The TGI [56] was over 100 µM.
